Values joined by “and” are separate entries in the source; they are usually repeats but may differ in a detail not shown here. Equal entries are not always repeated. Inconclusive results and toxic doses are left out. Rule as the data show it: active = T/C of 150% or more; inactive = T/C below 125%.
System: L1210 leukemia ip in BDF1 mice, survival T/C
Assay: NCI In Vivo Anticancer Drug Screen. Data for tumor model L1210 Leukemia (intraperitoneal) in B6D2F1 (BDF1) mice
Conditions: endpoint: mean survival time, higher = longer survival
Summary of the method: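 Each compound was tested against a transplantable tumor grown in mice. The endpoint was survival, with treated animals benchmarked against vehicle controls as a simple ratio.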

[1] = dose: 100.0 mg/kg/injection, schedule: Q04DX002 (ip), vehicle: Klucel (hydroxypropylcellulose) (HPC)
[2] = dose: 200.0 mg/kg/injection, schedule: Q04DX002 (ip), vehicle: Klucel (hydroxypropylcellulose) (HPC)
[3] = dose: 400.0 mg/kg/injection, schedule: Q04DX002 (ip), vehicle: Klucel (hydroxypropylcellulose) (HPC)
[4] = dose: 100.0 mg/kg/injection, schedule: Q01DX001 (ip), vehicle: saline
[5] = dose: 100.0 mg/kg/injection, schedule: Q01DX001 (ip), vehicle: Klucel (hydroxypropylcellulose) (HPC)
[6] = dose: 200.0 mg/kg/injection, schedule: Q01DX001 (ip), vehicle: Klucel (hydroxypropylcellulose) (HPC)
[7] = dose: 100.0 mg/kg/injection, schedule: Q04DX003 (ip), vehicle: Klucel (hydroxypropylcellulose) (HPC)
[8] = dose: 200.0 mg/kg/injection, schedule: Q04DX003 (ip), vehicle: Klucel (hydroxypropylcellulose) (HPC)
[9] = dose: 400.0 mg/kg/injection, schedule: Q04DX003 (ip), vehicle: Klucel (hydroxypropylcellulose) (HPC)
[10] = dose: 100.0 mg/kg/injection, schedule: Q04DX003 (ip), vehicle: saline
[11] = dose: 200.0 mg/kg/injection, schedule: Q04DX003 (ip), vehicle: saline
[12] = dose: 400.0 mg/kg/injection, schedule: Q04DX003 (ip), vehicle: saline
[13] = dose: 100.0 mg/kg/injection, schedule: Q04DX003 (ip), vehicle: saline with Tween-80

Measured: T/C

CCC(C)NP(=O)(OC1CC(C)(C)N(O)C(C)(C)C1)OC1CC(C)(C)N(O)C(C)(C)C1 (centres undefined)
inactive: dose: 50.0 mg/kg/injection, schedule: Q01DX001 (ip), vehicle: water 98 % of control | dose: 100.0 mg/kg/injection, schedule: Q01DX001 (ip), vehicle: water 98 % of control | dose: 200.0 mg/kg/injection, schedule: Q01DX001 (ip), vehicle: water 94 % of control

Cc1cc(Cl)ccc1OC(=O)Nc1cccc2ccccc12
inactive: dose: 50.0 mg/kg/injection, schedule: Q01DX009 (ip), vehicle: carboxymethylcellulose (CMC) 97 % of control and 101 % of control | dose: 50.0 mg/kg/injection, schedule: Q04DX003 (ip), vehicle: carboxymethylcellulose (CMC) 103 % of control | dose: 100.0 mg/kg/injection, schedule: Q01DX009 (ip), vehicle: carboxymethylcellulose (CMC) 102 % of control and 104 % of control | [1] 101 % of control | dose: 100.0 mg/kg/injection, schedule: Q04DX002 (ip), vehicle: carboxymethylcellulose (CMC) 98 % of control and 91 % of control | dose: 100.0 mg/kg/injection, schedule: Q04DX003 (ip), vehicle: carboxymethylcellulose (CMC) 100 % of control | dose: 200.0 mg/kg/injection, schedule: Q01DX009 (ip), vehicle: carboxymethylcellulose (CMC) 94 % of control and 92 % of control | [2] 112 % of control | dose: 200.0 mg/kg/injection, schedule: Q04DX002 (ip), vehicle: carboxymethylcellulose (CMC) 98 % of control and 100 % of control | dose: 200.0 mg/kg/injection, schedule: Q04DX003 (ip), vehicle: carboxymethylcellulose (CMC) 95 % of control | [3] 104 % of control | dose: 400.0 mg/kg/injection, schedule: Q04DX002 (ip), vehicle: carboxymethylcellulose (CMC) 104 % of control

CC(=O)OCCN1CCN(CCOC(C)=O)CC1
inactive: [4] 96 % of control | dose: 200.0 mg/kg/injection, schedule: Q01DX001 (ip), vehicle: saline 102 % of control | dose: 400.0 mg/kg/injection, schedule: Q01DX001 (ip), vehicle: saline 94 % of control

COc1cccc2c1CCC1=C2CC=C2CC3(CCC21C)OCCO3 (centres undefined)
inactive: dose: 100.0 mg/kg/injection, schedule: Q01DX009 (sc), vehicle: steriod suspending solution 91 % of control | dose: 200.0 mg/kg/injection, schedule: Q01DX009 (sc), vehicle: steriod suspending solution 101 % of control | dose: 400.0 mg/kg/injection, schedule: Q01DX009 (sc), vehicle: steriod suspending solution 106 % of control

S=C(NNc1ccccc1)Nc1ccccc1
inactive: [5] 93 % of control | [6] 103 % of control | dose: 400.0 mg/kg/injection, schedule: Q01DX001 (ip), vehicle: Klucel (hydroxypropylcellulose) (HPC) 95 % of control

CC1=COC2(CC1)OC1CC3C4CCC5CC(O)CCC5(C)C4CCC3(C)C1C2C (centres undefined)
inactive: dose: 100.0 mg/kg/injection, schedule: Q01DX001 (ip), vehicle: saline with Tween-80 96 % of control | dose: 200.0 mg/kg/injection, schedule: Q01DX001 (ip), vehicle: saline with Tween-80 102 % of control | dose: 400.0 mg/kg/injection, schedule: Q01DX001 (ip), vehicle: saline with Tween-80 95 % of control

N=C(N)S(=O)O
inactive: dose: 100.0 mg/kg/injection, schedule: Q01DX009 (ip), vehicle: saline with Tween-80 104 % of control

O=C(NCCCCCCCCCCCCNC(=O)Nc1cccc(C2=NCC(O)CN2)c1)Nc1cccc(C2=NCC(O)CN2)c1 (centres undefined)
inactive: dose: 62.5 mg/kg/injection, schedule: Q01DX Z (ip), vehicle: carboxymethylcellulose (CMC) 105 % of control | dose: 125.0 mg/kg/injection, schedule: Q01DX Z (ip), vehicle: carboxymethylcellulose (CMC) 94 % of control

COc1cc(CNC(=O)CCN2CC2)ccc1O
inactive: dose: 50.0 mg/kg/injection, schedule: Q04DX003 (ip), vehicle: Klucel (hydroxypropylcellulose) (HPC) 109 % of control | [7] 98 % of control | [8] 95 % of control | [9] 97 % of control

CCOC(=O)c1ccc(N=Cc2cccc([N+](=O)[O-])c2)cc1
inactive: [7] 89 % of control | [8] 88 % of control | [9] 96 % of control

C=C(C)/C=C(\C)CC(=C)C
inactive: [10] 97 % of control | [11] 105 % of control | [12] 96 % of control

O=C(NCc1ccccc1)c1ccc(Cl)cc1
inactive: [10] 97 % of control | [11] 97 % of control | [12] 95 % of control

CCN(CC)C(=O)/C=C/C(=O)N(CC)CC
inactive: [10] 103 % of control | [11] 100 % of control | [12] 100 % of control

CNCCC(=O)c1ccccc1
inactive: [7] 99 % of control | [8] 99 % of control

COc1ccc2c(c1)CC/C(=C\c1ccc(OCCN3CCCC3)cc1)C2=O
inactive: dose: 12.5 mg/kg/injection, schedule: Q04DX003 (ip), vehicle: saline with Tween-80 105 % of control | dose: 25.0 mg/kg/injection, schedule: Q04DX003 (ip), vehicle: saline with Tween-80 107 % of control | dose: 50.0 mg/kg/injection, schedule: Q04DX003 (ip), vehicle: saline with Tween-80 100 % of control | [13] 111 % of control

CCN1C(=O)CC2CCCC1C2 (centres undefined)
inactive: [4] 90 % of control

O=C(Cn1cc(F)c(=O)[nH]c1=O)N1CCC2(CC1)SSC1(CCN(C(=O)Cn3cc(F)c(=O)[nH]c3=O)CC1)S2
inactive: dose: 100.0 mg/kg/injection, schedule: Q01DX009 (ip), vehicle: saline 96 % of control | [10] 104 % of control | dose: 200.0 mg/kg/injection, schedule: Q01DX009 (ip), vehicle: saline 96 % of control | [11] 97 % of control | [12] 97 % of control

O=C(OC1CCCCCCC1OC(=O)c1ccc([N+](=O)[O-])cc1)c1ccc([N+](=O)[O-])cc1 (centres undefined)
inactive: dose: 75.0 mg/kg/injection, schedule: Q01DX001 (ip), vehicle: carboxymethylcellulose (CMC) 93 % of control | dose: 150.0 mg/kg/injection, schedule: Q01DX001 (ip), vehicle: carboxymethylcellulose (CMC) 91 % of control | dose: 300.0 mg/kg/injection, schedule: Q01DX001 (ip), vehicle: carboxymethylcellulose (CMC) 91 % of control

CN=C(c1ccc(NC(=O)c2cc(C(=O)Nc3ccc(C(=NC)N(C)C)cc3)cc([N+](=O)[O-])c2)cc1)N(C)C
inactive: dose: 1.88 mg/kg/injection, schedule: Q01DX Z (ip), vehicle: saline 100 % of control | dose: 3.75 mg/kg/injection, schedule: Q01DX Z (ip), vehicle: saline 100 % of control | dose: 7.5 mg/kg/injection, schedule: Q01DX Z (ip), vehicle: saline 98 % of control

CC(C)(C)OC(=O)CNC(=O)CCl
inactive: [10] 96 % of control | [11] 95 % of control

CCOc1ccc2ccccc2c1OP(=O)(OCC)OCC
inactive: dose: 100.0 mg/kg/injection, schedule: Q04DX002 (ip), vehicle: other 103 % of control | dose: 200.0 mg/kg/injection, schedule: Q04DX002 (ip), vehicle: other 113 % of control | dose: 400.0 mg/kg/injection, schedule: Q04DX002 (ip), vehicle: other 106 % of control

CCn1c2ccccc2c2nnc(NCCCO)nc21
inactive: dose: 100.0 mg/kg/injection, schedule: Q04DX002 (ip), vehicle: saline with Tween-80 96 % of control | dose: 100.0 mg/kg/injection, schedule: Q04DX002 (ip), vehicle: saline 101 % of control | dose: 200.0 mg/kg/injection, schedule: Q04DX002 (ip), vehicle: saline with Tween-80 100 % of control | dose: 200.0 mg/kg/injection, schedule: Q04DX002 (ip), vehicle: saline 97 % of control | dose: 400.0 mg/kg/injection, schedule: Q04DX002 (ip), vehicle: saline with Tween-80 94 % of control | dose: 400.0 mg/kg/injection, schedule: Q04DX002 (ip), vehicle: saline 101 % of control

O=c1cnc2ccccc2[nH]1
inactive: [13] 108 % of control | dose: 200.0 mg/kg/injection, schedule: Q04DX003 (ip), vehicle: saline with Tween-80 97 % of control

O=C(Cc1c(F)c(F)c(F)c(F)c1F)Nc1ccc(-c2nc3ccccc3s2)cc1
inactive: [5] 87 % of control | dose: 100.0 mg/kg/injection, schedule: Q01DX009 (ip), vehicle: Klucel (hydroxypropylcellulose) (HPC) 115 % of control | [1] 104 % of control and 115 % of control | [7] 95 % of control | [6] 90 % of control | dose: 200.0 mg/kg/injection, schedule: Q01DX009 (ip), vehicle: Klucel (hydroxypropylcellulose) (HPC) 105 % of control | [2] 93 % of control and 95 % of control | [8] 97 % of control | [3] 95 % of control and 96 % of control | [9] 97 % of control

CC(C)OP(=O)(OC=C(Cl)Cl)OC(C)C
inactive: dose: 75.0 mg/kg/injection, schedule: Q01DX001 (ip), vehicle: saline 93 % of control | dose: 150.0 mg/kg/injection, schedule: Q01DX001 (ip), vehicle: saline 91 % of control

Reference: PubChem BioAssay AID248 (DTP/NCI, 2004)
